Reference: ChEMBL document CHEMBL3872216, “Modulatory effects of silibinin in various cell signaling pathways against liver disorders and cancer - A comprehensive review” (Eur J Med Chem, 2016)

Tests used:
[1] = Cytotoxicity against human T47D cells assessed as reduction in cell viability after 24 hrs by MTT assay; type: functional, cell-based
[2] = Downregulation of telomerase expression in human T47D cells after 72 hrs in presence of curcumin by SYBR green-dye based RT-PCR analysis; type: functional, cell-based
[3] = Antitumor activity against humanPC3 cells xenografted in nude mouse assessed as tumor growth inhibition at 100 mg/kg, po administered via gavage for 5 days per week for 7 weeks relative to control; type: functional; settings: Homo sapiens, PC-3, po; read-out: TGI
[4] = Antitumor activity against wild type B6/129PF2 mouse lung tumor assessed reduction in urethane-induced tumor growth at 742 mg/kg, po administered via gavage for 5 days per week for 18 weeks starting from 8 weeks after urethane injection measured 25 weeks after first urethane injection; type: functional; settings: B6/129PF2, po, read-out: TGI
[5] = Cytotoxicity against human T47D cells assessed as reduction in cell viability after 24 hrs in presence of curcumin by MTT assay; type: functional, cell-based
[6] = Cytotoxicity against human ARCaPM cells assessed as cell growth inhibition at 200 uM after 48 hrs by MTT assay relative to control; type: functional; settings: read-out: GI
[7] = Cytotoxicity against human LoVo cells assessed as reduction in cell growth after 24 hrs by trypan blue exclusion assay; type: functional, cell-based
[8] = Cytotoxicity against human DU145 cells assessed as cell growth inhibition at 100 uM after 48 hrs in presence of 25 nM doxorubicin by manual cell counting; type: functional, DU-145
[9] = Antitumor activity against human HT-29 cells xenografted in nude mouse assessed as tumor growth inhibition at 200 mg/kg, po administered 5 days per week for 32 days; type: functional; settings: HT-29, po, read-out: TGI
[10] = Cytotoxicity against human LNCAP cells assessed as cell growth inhibition at 200 uM after 48 hrs by MTT assay relative to control; type: functional; settings: read-out: GI
[11] = Cytotoxicity against human LNCAP cells assessed as cell growth inhibition at 25 uM after 48 hrs in presence of 15 nM doxorubicin by manual cell counting; type: functional
[12] = Cytotoxicity against human DU145 cells assessed as cell growth inhibition at 200 uM after 48 hrs by MTT assay relative to control; type: functional; settings: DU-145, 48 h, read-out: GI
[13] = Cytotoxicity against human LoVo cells assessed as reduction in cell growth at 50 to 200 uM after 24 hrs by trypan blue exclusion assay; type: functional
[14] = Cytotoxicity against human PC3 cells assessed as cell growth inhibition at 200 uM after 48 hrs by MTT assay relative to control; type: functional; settings: PC-3, 48 h, read-out: GI
Cytochrome P450 2C9 = Cytochrome P450 2C9 (Homo sapiens, UniProt P11712); test: Inhibition of CYP2C9 in human liver microsomes using (S)-warfarin as substrate at after 30 mins by LC-MS/MS analysis; type: ADME
Sequence of Cytochrome P450 2C9 (P11712 whole entry): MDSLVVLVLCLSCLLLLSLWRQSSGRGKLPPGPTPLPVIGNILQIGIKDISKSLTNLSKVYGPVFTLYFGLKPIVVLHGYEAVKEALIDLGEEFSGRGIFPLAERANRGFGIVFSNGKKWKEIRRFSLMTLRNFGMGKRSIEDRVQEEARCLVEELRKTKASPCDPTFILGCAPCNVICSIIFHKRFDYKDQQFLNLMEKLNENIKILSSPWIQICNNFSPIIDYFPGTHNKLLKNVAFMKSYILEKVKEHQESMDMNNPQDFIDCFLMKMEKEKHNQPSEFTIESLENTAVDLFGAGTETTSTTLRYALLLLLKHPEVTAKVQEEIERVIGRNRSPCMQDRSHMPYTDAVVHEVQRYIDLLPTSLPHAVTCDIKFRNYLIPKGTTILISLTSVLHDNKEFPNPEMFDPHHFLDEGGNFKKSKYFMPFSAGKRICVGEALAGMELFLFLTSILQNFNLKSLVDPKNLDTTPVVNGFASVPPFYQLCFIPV

Hepatitis C virus = test: Antiviral activity against Hepatitis C virus in liver transplanted patient with established HCV recurrence assessed as reduction in viral load at 20 mg/kg, iv administered for 14 days; type: functional, Hepacivirus hominis

Row | IC50 [2] [µM] | IC50 (Cytochrome P450 2C9) [µM] | Structure (SMILES) | IC50 [1] [µM] | inhibition in vivo at 100 mg/kg [3] [%] | inhibition in vivo at 742 mg/kg [4] [%] | IC50 [5] [µM] | inhibition of growth at 200 µM [6] [%] | IC50 [7] [µM] | growth inhibition (GI) [8] | inhibition in vivo at 200 mg/kg [9] [%] | inhibition of growth at 200 µM [10] [%] | growth inhibition (GI) [11] | inhibition of growth at 200 µM [12] [%] | growth inhibition (GI) [13] | inhibition of growth at 200 µM [14] [%] | Activity (Hepatitis C virus)
1 |  |  | COc1cc(/C=C/C(=O)CC(=O)/C=C/c2ccc(O)c(OC)c2)ccc1O [CURCUMIN] | 30 |  |  |  |  |  |  |  |  |  |  |  |  | 
2 | 12 | 18 | COc1cc([C@H]2Oc3cc([C@H]4Oc5cc(O)cc(O)c5C(=O)[C@@H]4O)ccc3O[C@@H]2CO)ccc1O [SILYBIN A] | 110 | 40 | 71 | 20 | 18.5 | 50 to 200 | 74 - 87% | ≤ 48 | 48.7 | 62 - 69% | 73.8 | 30 - 49% | 60 | 2.3
